Source: ChEMBL document CHEMBL3596195, “Novel cajaninstilbene acid derivatives as antibacterial agents” (Eur J Med Chem, 2015)
In brackets after ≈: the same amount, converted by molar mass.

How the values were obtained:
Type in all cases: functional
Proteus vulgaris = experiment: Antibacterial activity against Proteus vulgaris ATCC49101 assessed as bacterial growth inhibition after 24 hrs by broth dilution method; settings: ATCC49101, 24 h
Staphylococcus aureus [1] = experiment: Antibacterial activity against methicillin-resistant Staphylococcus aureus ATCC510019 assessed as bacterial growth inhibition after 24 hrs by broth dilution method; settings: ATCC510019, 24 h
Staphylococcus aureus [2] = experiment: Antibacterial activity against methicillin-resistant Staphylococcus aureus ATCC51033 assessed as bacterial growth inhibition after 24 hrs by broth dilution method; settings: ATCC51033, 24 h
Staphylococcus aureus [3] = experiment: Antibacterial activity against methicillin-resistant Staphylococcus aureus ATCC523512 assessed as bacterial growth inhibition after 24 hrs by broth dilution method; settings: ATCC523512, 24 h
Staphylococcus aureus [4] = experiment: Antibacterial activity against methicillin-resistant Staphylococcus aureus ATCC515992 assessed as bacterial growth inhibition after 24 hrs by broth dilution method; settings: ATCC515992, 24 h
Bacillus subtilis = experiment: Antibacterial activity against Bacillus subtilis ATCC6633 assessed as bacterial growth inhibition after 24 hrs by broth dilution method; settings: ATCC6633, 24 h
Escherichia coli = experiment: Antibacterial activity against Escherichia coli ATCC25922 assessed as bacterial growth inhibition after 24 hrs by broth dilution method; settings: ATCC25922, 24 h
Staphylococcus aureus [5] = experiment: Antibacterial activity against methicillin-resistant Staphylococcus aureus ATCC43300 assessed as bacterial growth inhibition after 24 hrs by broth dilution method; settings: ATCC43300, 24 h
Staphylococcus aureus [6] = experiment: Antibacterial activity against methicillin-resistant Staphylococcus aureus ATCC52056 assessed as bacterial growth inhibition after 24 hrs by broth dilution method; settings: ATCC52056, 24 h
Staphylococcus aureus [7] = experiment: Antibacterial activity against methicillin-resistant Staphylococcus aureus ATCC513045 assessed as bacterial growth inhibition after 24 hrs by broth dilution method; settings: ATCC513045, 24 h
[8] = system: Staphylococcus epidermidis; experiment: Antibacterial activity against Staphylococcus epidermidis ATCC12228 assessed as bacterial growth inhibition after 24 hrs by broth dilution method; settings: ATCC12228, 24 h
Pseudomonas aeruginosa = experiment: Antibacterial activity against Pseudomonas aeruginosa ATCC2785 assessed as bacterial growth inhibition after 24 hrs by broth dilution method; settings: ATCC2785, 24 h
Staphylococcus aureus [9] = experiment: Antibacterial activity against Staphylococcus aureus ATCC25923 assessed as bacterial growth inhibition after 24 hrs by broth dilution method; settings: ATCC25923, 24 h
Staphylococcus aureus [10] = experiment: Antibacterial activity against methicillin-resistant Staphylococcus aureus ATCC62202 assessed as bacterial growth inhibition after 24 hrs by broth dilution method; settings: ATCC62202, 24 h
Staphylococcus aureus [11] = experiment: Antibacterial activity against methicillin-resistant Staphylococcus aureus ATCC425055 assessed as bacterial growth inhibition after 24 hrs by broth dilution method; settings: ATCC425055, 24 h

Structure (SMILES) | MIC (Proteus vulgaris) [µg/mL] | MIC (Staphylococcus aureus [1]) [µg/mL] | MIC (Staphylococcus aureus [2]) [µg/mL] | MIC (Staphylococcus aureus [3]) [µg/mL] | MIC (Staphylococcus aureus [4]) [µg/mL] | MIC (Bacillus subtilis) [µg/mL] | MIC (Escherichia coli) [µg/mL] | MIC (Staphylococcus aureus [5]) [µg/mL] | MIC (Staphylococcus aureus [6]) [µg/mL] | MIC (Staphylococcus aureus [7]) [µg/mL] | MIC [8] [µg/mL] | MIC (Pseudomonas aeruginosa) [µg/mL] | MIC (Staphylococcus aureus [9]) [µg/mL] | MIC (Staphylococcus aureus [10]) [µg/mL] | MIC (Staphylococcus aureus [11]) [µg/mL]
COC(=O)c1c(/C=C/c2cc(OC)c(OC)c(OC)c2)cc(OC)c(CC=C(C)C)c1O | > 128 | > 128 | 128 (≈ 289 µM) | > 128 | 64 (≈ 145 µM) | > 128 | > 128 | > 128 | > 128 | > 128 | 64 (≈ 145 µM) | > 128 | > 128 | > 128 | > 128
COC(=O)c1c(O)cc(OC)cc1/C=C/c1cc(OC)c(OC)c(OC)c1 | > 128 | > 128 | 128 (≈ 342 µM) | > 128 | 64 (≈ 171 µM) | > 128 | > 128 | > 128 | > 128 | > 128 | > 128 | > 128 | > 128 | > 128 | > 128
COc1cc(/C=C/c2ccc(Cl)cc2)c(C(=O)O)c(O)c1CC=C(C)C | > 64 | 1 (≈ 2.68 µM) | 0.5 (≈ 1.34 µM) | 4 (≈ 10.7 µM) | 4 (≈ 10.7 µM) | 2 (≈ 5.36 µM) | 128 (≈ 343 µM) | 2 (≈ 5.36 µM) | 2 (≈ 5.36 µM) | 4 (≈ 10.7 µM) | 4 (≈ 10.7 µM) | > 64 | 8 (≈ 21.5 µM) | 2 (≈ 5.36 µM) | 4 (≈ 10.7 µM)
COC(=O)c1c(/C=C/c2ccc(Cl)cc2)cc(OC)c(CC=C(C)C)c1O | > 128 | > 128 | > 128 | > 128 | > 128 | > 128 | > 128 | > 128 | > 128 | > 128 | 128 (≈ 331 µM) | > 128 | > 128 | 128 (≈ 331 µM) | > 128
COC(=O)c1c(/C=C/c2ccccc2)cc(OC)c(CC=C(C)C)c1O | > 128 | > 128 | > 128 | > 128 | > 128 | > 128 | > 128 | 128 (≈ 363 µM) | > 128 | 128 (≈ 363 µM) | > 128 | > 128 | > 128 | 128 (≈ 363 µM) | 128 (≈ 363 µM)
COC(=O)c1c(/C=C/c2ccc(OC)cc2)cc(OC)c(CC=C(C)C)c1O | > 128 | 128 (≈ 335 µM) | > 128 | 128 (≈ 335 µM) | > 128 | > 128 | > 128 | 128 (≈ 335 µM) | 128 (≈ 335 µM) | 128 (≈ 335 µM) | > 128 | > 128 | 128 (≈ 335 µM) | > 128 | 128 (≈ 335 µM)
COc1cc(/C=C/c2ccc(C)cc2)c(C(=O)O)c(O)c1CC=C(C)C | > 64 | 32 (≈ 90.8 µM) | 16 (≈ 45.4 µM) | 32 (≈ 90.8 µM) | 32 (≈ 90.8 µM) | 16 (≈ 45.4 µM) | > 128 | 32 (≈ 90.8 µM) | 16 (≈ 45.4 µM) | 8 (≈ 22.7 µM) | 32 (≈ 90.8 µM) | > 64 | 16 (≈ 45.4 µM) | 32 (≈ 90.8 µM) | 16 (≈ 45.4 µM)
COc1cc(O)c(C(=O)O)c(/C=C/c2cccc(F)c2)c1 | > 128 | > 128 | > 128 | 128 (≈ 444 µM) | > 128 | > 128 | > 128 | > 128 | > 128 | > 128 | 64 (≈ 222 µM) | > 128 | > 128 | > 128 | > 128
COC(=O)c1c(O)cc(OC)cc1/C=C/c1ccc(F)cc1F | > 128 | > 128 | 128 (≈ 400 µM) | > 128 | > 128 | > 128 | > 128 | 128 (≈ 400 µM) | > 128 | > 128 | > 128 | > 128 | > 128 | > 128 | 128 (≈ 400 µM)
COC(=O)c1c(O)cc(OC)cc1/C=C/c1ccc(F)cc1 | > 128 | > 128 | > 128 | > 128 | 128 (≈ 423 µM) | > 128 | > 128 | > 128 | > 128 | > 128 | > 128 | > 128 | > 128 | > 128 | > 128
COc1ccc(/C=C/c2cc(OC)c(CC=C(C)C)c(O)c2C(=O)O)cc1 | > 64 | 16 (≈ 43.4 µM) | 32 (≈ 86.9 µM) | 16 (≈ 43.4 µM) | 16 (≈ 43.4 µM) | 16 (≈ 43.4 µM) | > 128 | 16 (≈ 43.4 µM) | 16 (≈ 43.4 µM) | 16 (≈ 43.4 µM) | 32 (≈ 86.9 µM) | > 64 | 32 (≈ 86.9 µM) | 16 (≈ 43.4 µM) | 8 (≈ 21.7 µM)
COc1ccc(/C=C/c2cc(OC)cc(O)c2C(=O)O)cc1 | > 128 | > 128 | > 128 | > 128 | > 128 | 64 (≈ 213 µM) | > 128 | > 128 | > 128 | > 128 | > 128 | > 128 | > 128 | > 128 | > 128
COc1cc(/C=C/c2cccc(C#N)c2)c(C(=O)O)c(O)c1CC=C(C)C | > 64 | 2 (≈ 5.5 µM) | 2 (≈ 5.5 µM) | 2 (≈ 5.5 µM) | 2 (≈ 5.5 µM) | 16 (≈ 44 µM) | > 128 | 8 (≈ 22 µM) | 4 (≈ 11 µM) | 4 (≈ 11 µM) | 2 (≈ 5.5 µM) | > 64 | 4 (≈ 11 µM) | 0.5 (≈ 1.38 µM) | 1 (≈ 2.75 µM)
COC(=O)c1c(O)cc(OC)cc1/C=C/c1cccc(C#N)c1 | > 128 | > 128 | 128 (≈ 414 µM) | > 128 | 64 (≈ 207 µM) | > 128 | > 128 | > 128 | > 128 | > 128 | > 128 | > 128 | > 128 | > 128 | > 128
COC(=O)c1c(/C=C/c2ccccc2F)cc(OC)c(CC=C(C)C)c1O | > 128 | > 128 | > 128 | > 128 | > 128 | > 128 | > 128 | 128 (≈ 346 µM) | > 128 | 128 (≈ 346 µM) | > 128 | > 128 | > 128 | 128 (≈ 346 µM) | 128 (≈ 346 µM)
